Assay type in all cases: physicochemical
The nature of data set [1]: DLS particle size and PDI of drugs milled with F127 or SDS (Example 6). From the text: The technique described in Example 1 was applied to other non-polymeric solid particles to show the versatility of the approach. […] Table 12 lists the particle sizes for a representative selection of drugs that were milled using this method.
A short description of data set [2]: DLS particle size and PDI of hydrocortisone derivatives milled with Pluronic F127 (Examples 8, 9). The note with it: for Size (Z-averaged) of milled suspension / PDI of milled suspension: 5% compound, 5% F127 in PBS pH 7.1, milled 25 hours; for Milled suspension PDI / Milled suspension Size (Z-average): final form B. The method, then: (§1) A milling procedure was employed in which aqueous dispersions containing coarse compound particles were individually milled with F127 at near-neutral pH buffer using a grinding medium. Briefly, a slurry containing 5% of compound and 5% F127 in PBS (0.0067 M PO4^3−), pH 7.1 was added to an equal bulk volume of 1-mm ceria-stabilized zirconium oxide beads in a glass vial (e.g., 2 mL of slurry per 2 mL of beads). A magnetic stir bar was used to agitate the beads, stirring at approximately 500 rpm at ambient conditions for 25 hours.
The milled suspensions were subjected to dynamic light scattering (DLS) measurements to determine particle size and polydispersity index (PDI, a measure of the width of the particle size distribution). The samples for DLS measurements were buffered with HyClone™ PBS (Phosphate-Buffered Saline) to produce isotonic samples that have a physiologically relevant pH.
Form 3-B was wet-milled using the same method that generated the data in Tables 13 and 14.

Data set [3] can be described thus: HPLC chemical purity of milled suspensions (stability to milling). The procedure:
as §1
The HPLC method used to determine the purity of milled suspensions is as follows: column—SunFire™ C18, 3.5 μm, 3.0×150 mm, column temperature—40° C., flow rate—0.7 mL/min, detection wavelength—254 nm, flow gradient—50:50 (0 minutes) to 0:100 (10 minutes) 0.1% phosphoric acid/H2O:acetonitrile.

Data set [4] can be described thus: XRPD crystal form before and after milling. The note with it: milled with F127. From the text:
Particles were isolated by centrifugation, then resuspended in H2O and then recentrifuged. The wet sample was resuspended in H2O and deposited thinly and evenly onto a flat zero background sample holder (Rigaku 906165). The sample was allowed to air dry.
Milligram amounts were packed as an evenly thin layer of solid onto a zero background sample holder (Rigaku 906165).
XRPD patterns were obtained using a Rigaku MiniFlex 600 benchtop x-ray diffractometer equipped with a Cu X-ray tube (Cu/Kα=1.54059 Å), a six-position sample changer and a D/teX Ultra detector. […] Diffraction patterns were viewed and analyzed using PDXL analysis software provided by the instrument manufacturer. A reference standard silicon powder (NIST Standard Reference Material 640d) generated a peak at 28.43° and 28.45° two theta when samples were prepared as suspension in H2O (to simulate Procedure A) and Procedure B, respectively.
Except for Crystalline Form 1-B, the XRPD samples of all other forms were prepared using Procedure A (milled compounds) or Procedure B (neat compounds). […] was used to prepare the XRPD sample of Crystalline Form 1-B.
All input crystalline forms were arbitrarily designated as “A” forms. New forms that emerged after milling, if any, were sequentially designated as “B”, “C”, etc. An “A” form was not designated for Compound 2 since the input material was amorphous.

Where [5] appears, read: drug milled with stabilizer F127.
Where [6] appears, read: drug milled with stabilizer SDS.

On to `C[C@]12C=CC(=O)C=C1CC[C@@H]1[C@@H]2[C@@H](O)C[C@@]2(C)[C@H]1CC[C@]2(O)C(=O)CO` [Prednisolone], for which, in data set [1] (setting [5]), the PDI is 0.090 and the “Z-Ave D” value is 273 nm. Further, in data set [1] (setting [6]), the PDI stood at 0.120 and the “Z-Ave D” value turned out to be 245 nm.

`C[C@]12CCC(=O)C=C1CC[C@@H]1[C@@H]2[C@@H](O)C[C@@]2(C)[C@H]1CC[C@]2(OC(=O)c1ccco1)C(=O)CO` [Compound 2, (10R,11S,13S,17R)-11-hydroxy-17-(2-hydroxyacetyl)-10,13-dimethyl-3-oxo-2,3,6,7,8,9,10,11,12,13,14,15,16,17-tetradecahydro-1H-cyclopenta[a]phenanthren-17-yl furan-2-carboxylate]: in data set [2], the “Size (Z-averaged) of milled suspension” value is on record as 238 nm. This compound showed a Purity after milling in data set [3] (after milling with F127) of more than 96%. Also, the “Crystal form change after milling of Input forms?” value (from here on “Crystal form change after milling”) in data set [4] is “No”.

For `NS(=O)(=O)c1cc(C(=O)O)c(NCc2ccco2)cc1Cl` [Furosemide], in data set [1] (setting [5]), the PDI is recorded as 0.119 and the “Z-Ave D” value is recorded as 217 nm. Further, in data set [1] (setting [6]), the PDI is listed as 0.146 and the “Z-Ave D” value was 200 nm.

In the case of `CCOC(=O)O[C@]1(C(=O)OCCl)CC[C@H]2[C@@H]3CCC4=CC(=O)C=C[C@]4(C)[C@H]3[C@@H](O)C[C@@]21C` [Loteprednol etabonate], in data set [1] (setting [5]), the PDI is on record as 0.123 and the “Z-Ave D” value was 241 nm. Further, in data set [1] (setting [6]), the PDI was 0.130 and the “Z-Ave D” value was 241 nm.

With `COc1ccc2c(c1)c(CC(=O)O)c(C)n2C(=O)c1ccc(Cl)cc1` [Indomethacin], the results for the PDI in data set [1] (setting [5]) and in data set [1] (setting [6]) were 0.123 and 0.154, respectively. For the same compound, the results for the “Z-Ave D” value in data set [1] (setting [5]) and in data set [1] (setting [6]) were 225 nm and 216 nm, respectively.

`CCC(=O)O[C@]1(C(=O)SCF)[C@H](C)C[C@H]2[C@@H]3C[C@H](F)C4=CC(=O)C=C[C@]4(C)[C@@]3(F)[C@@H](O)C[C@@]21C` [Fluticasone propionate]: in data set [1] (setting [5]), the PDI was found to be 0.114 and the “Z-Ave D” value worked out at 203 nm. In data set [1] (setting [6]), the PDI came out at 0.193 and the “Z-Ave D” value was 202 nm.

`C[C@]12CCC(=O)C=C1CC[C@@H]1[C@@H]2[C@@H](O)C[C@@]2(C)[C@H]1CC[C@]2(OC(=O)CCS(=O)(=O)c1ccccc1)C(=O)CO` [Compound 1, (10R,11S,13S,17R)-11-hydroxy-17-(2-hydroxyacetyl)-10,13-dimethyl-3-oxo-2,3,6,7,8,9,10,11,12,13,14,15,16,17-tetradecahydro-1H-cyclopenta[a]phenanthren-17-yl 3-(phenylsulfonyl)propanoate]: in data set [2], the “PDI of milled suspension” value worked out at 0.318 and the “Size (Z-averaged) of milled suspension” value is 509 nm. Moreover, the Purity after milling in data set [3] (after milling with F127) was less than 90%. Also, the Purity after milling in data set [3] (after milling with F127, listed as 7) is reported as less than 90%. The “Crystal form change after milling” value in data set [4] is listed as “Yes”.

Regarding `C[C@]12CCC(=O)C=C1CC[C@@H]1[C@@H]2[C@@H](O)C[C@@]2(C)[C@H]1CC[C@]2(OC(=O)Cc1ccc(Br)cc1)C(=O)CO` [Compound 3, (10R,11S,13S,17R)-11-hydroxy-17-(2-hydroxyacetyl)-10,13-dimethyl-3-oxo-2,3,6,7,8,9,10,11,12,13,14,15,16,17-tetradecahydro-1H-cyclopenta[a]phenanthren-17-yl 2-(4-bromophenyl)acetate], in data set [2], the “PDI of milled suspension” value is recorded as 0.197 and the “Size (Z-averaged) of milled suspension” value was determined as 341 nm. Moreover, in data set [2] (input form A), the “Milled suspension PDI” value is 0.197 and the “Milled suspension Size (Z-average)” value is reported as 341 nm. In data set [2] (input form B), the “Milled suspension PDI” value stood at 0.154 and the “Milled suspension Size (Z-average)” value turned out to be 262 nm. This compound also yielded a Purity after milling in data set [3] (after milling with F127) of more than 96%. The “Crystal form change after milling” value in data set [4] is reported as “Yes”.
